Data: patent US12503475B2 (Centessa Pharmaceuticals (UK) Limited, priority 2020, dated 2025)
Values joined by “and” are separate entries in the source; they are usually repeats but may differ in a detail not shown here. Equal values may be shown once. Read-outs that look alike come from different tables or passages of the source.

Target: T1, human orexin type 2 receptor (hOX2R) (Homo sapiens, UniProt O43614)
T1 construct: expressed in transfected cells
T1 sequence (O43614 1-444): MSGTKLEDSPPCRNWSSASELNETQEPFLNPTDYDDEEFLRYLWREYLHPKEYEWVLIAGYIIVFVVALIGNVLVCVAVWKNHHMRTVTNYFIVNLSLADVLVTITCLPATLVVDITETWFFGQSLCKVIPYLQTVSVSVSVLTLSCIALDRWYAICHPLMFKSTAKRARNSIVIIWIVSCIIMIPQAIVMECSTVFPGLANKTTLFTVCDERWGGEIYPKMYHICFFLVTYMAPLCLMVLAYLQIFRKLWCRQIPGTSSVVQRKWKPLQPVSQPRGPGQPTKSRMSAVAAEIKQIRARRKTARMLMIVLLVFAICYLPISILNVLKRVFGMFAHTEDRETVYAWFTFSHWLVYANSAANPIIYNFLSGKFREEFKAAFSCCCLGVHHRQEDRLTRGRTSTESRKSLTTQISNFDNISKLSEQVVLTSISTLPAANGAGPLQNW
Test: Measurement of orexin type 2 receptor agonist activity (FLIPR calcium fluorescence)
Format: cell-based
Conditions: for EC50: read-out: hOx2 pEC50 (converted); for Emax: CHO, read-out: hOx2 Emax (%)
Procedure, shortened: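 Agonism was read as fluorescence in cells stably expressing human OX2R. E. is the response at 10 μM relative to orexin A as full agonist (100%).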

[1] = CHO cells expressing hOX2R, FLIPR calcium fluorescence

Row | EC50 [1] | Emax [1] | Structure (SMILES) | Emax
1 | 1 to 10 nM | 90 to 100% | O=C(N1CC(F)C1)N1CC2(CC2)C(NS(=O)(=O)CF)C1Cc1cccc(-c2ccccc2)c1F (racemic) [Compound 105, 1-fluoro-N-(6-((2-fluoro-[1,1′-biphenyl]-3-yl)methyl)-5-(3-fluoroazetidine-1-carbonyl)-5-azaspiro[2.4]heptan-7-yl)methanesulfonamide] | 
2 | 1 to 10 nM | 90 to 100% | N#C[C@]1(C(=O)N2CC3(CC3)[C@H](NS(=O)(=O)CF)[C@@H]2Cc2cccc(-c3ccccc3)c2F)CCO1 [Compound 226, N-((6S,7S)-5-((S)-2-cyanooxetane-2-carbonyl)-6-((2-fluoro-[1,1′-biphenyl]-3-yl)methyl)-5-azaspiro[2.4]heptan-7-yl)-1-fluoromethanesulfonamide] | 
3 | 1 to 10 nM | 90 to 100% | O=C(NCCF)N1CC2(CC2)[C@H](NS(=O)(=O)C(F)F)[C@@H]1Cc1cccc(-c2ccccc2)c1F [Compound 207, (6S,7S)-7-((difluoromethyl)sulfonamido)-6-((2-fluoro-[1,1′-biphenyl]-3-yl)methyl)-N-(2-fluoroethyl)-5-azaspiro[2.4]heptane-5-carboxamide] | 
4 | 1 to 10 nM | 90 to 100% | CCS(=O)(=O)N[C@@H]1[C@H](Cc2cc(F)cc(-c3cc(F)cc(F)c3)c2F)N(C(=O)[C@H]2CCO2)CC12CC2 [Compound 407, N-((6S,7S)-5-((R)-oxetane-2-carbonyl)-6-((2,3′,5,5′-tetrafluoro-[1,1′-biphenyl]-3-yl)methyl)-5-azaspiro[2.4]heptan-7-yl)ethanesulfonamide] | 
5 | 10 to 100 nM | 90 to 100% | CS(=O)(=O)N[C@@H]1[C@H](Cc2cccc(-c3ccccc3)c2)N(C(=O)[C@H](O)C(F)(F)F)CC12CC2 [Compound 299, N-((6S,7S)-6-([1,1′-biphenyl]-3-ylmethyl)-5-((S)-3,3,3-trifluoro-2-hydroxypropanoyl)-5-azaspiro[2.4]heptan-7-yl)methanesulfonamide] | 
6 | 1 to 10 nM | 90 to 100% | O=C([C@H]1CCO1)N1CC2(CC2)[C@H](NS(=O)(=O)CF)[C@@H]1Cc1cc(F)cc(-c2cccc(F)c2F)c1F [Compound 217, 1-fluoro-N-((6S,7S)-5-((R)-oxetane-2-carbonyl)-6-((2,2′,3′,5-tetrafluoro-[1,1′-biphenyl]-3-yl)methyl)-5-azaspiro[2.4]heptan-7-yl)methanesulfonamide] | 
7 | 10 to 100 nM | 90 to 100% | N#CCS(=O)(=O)N[C@@H]1[C@H](Cc2cccc(-c3ccccc3)c2)N(C(=O)[C@H]2CCO2)CC12CC2 [Compound 73] | 
8 | 10 to 100 nM | 80 to 90% | COC[C@@H](O)C(=O)N1CC2(CC2)[C@H](NS(C)(=O)=O)[C@@H]1Cc1cccc(-c2ccccc2)c1 [Compound 63, N-((6S,7S)-6-([1,1′-biphenyl]-3-ylmethyl)-5-((R)-2-hydroxy-3-methoxypropanoyl)-5-azaspiro[2.4]heptan-7-yl)methanesulfonamide] | 
9 | 100 to 1000 nM | 40 to 50% | CC(F)(F)C(=O)N1CC2(CC2)C(NS(C)(=O)=O)C1Cc1cccc(-c2ccccc2)c1 (racemic) [Compound 9, N-(6-([1,1′-biphenyl]-3-ylmethyl)-5-(2,2-difluoropropanoyl)-5-azaspiro[2.4]heptan-7-yl)methanesulfonamide] | 
10 | 1 to 10 nM | 90 to 100% | CS(=O)(=O)N[C@@H]1[C@H](Cc2cccc(-c3ccccc3)c2F)N(C(=O)N2CCC2)CC12CC2 [Compound 35, N-((6S,7S)-5-(azetidine-1-carbonyl)-6-((2-fluoro-[1,1′-biphenyl]-3-yl)methyl)-5-azaspiro[2.4]heptan-7-yl)methanesulfonamide] | 
11 | 1 to 10 nM | 90 to 100% | Cn1ccc(S(=O)(=O)N[C@@H]2[C@H](Cc3cccc(-c4ccccc4)c3)N(C(=O)[C@H]3CCO3)CC23CC3)n1 [Compound 72, N-((6S,7S)-6-([1,1′-biphenyl]-3-ylmethyl)-5-((R)-oxetane-2-carbonyl)-5-azaspiro[2.4]heptan-7-yl)-1-methyl-1H-pyrazole-3-sulfonamide] | 
12 | 1 to 10 nM and 0.0794 to 1 nM | 90 to 100% | CS(=O)(=O)N[C@@H]1[C@H](Cc2cccc(-c3cccc(F)c3)c2F)N(C(=O)N2CCC2)CC12CC2 [Compound 27, N-((6S,7S)-5-(azetidine-1-carbonyl)-6-((2,3′-difluoro-[1,1′-biphenyl]-3-yl)methyl)-5-azaspiro[2.4]heptan-7-yl)methanesulfonamide] | 
13 | 0.0794 to 1 nM | 90 to 100% | O=C([C@H]1CCO1)N1CC2(CC2)[C@H](NS(=O)(=O)C2(F)CC2)[C@@H]1Cc1cccc(-c2ccccc2)c1F [Compound 420, 1-fluoro-N-((6S,7S)-6-((2-fluoro-[1,1′-biphenyl]-3-yl)methyl)-5-((R)-oxetane-2-carbonyl)-5-azaspiro[2.4]heptan-7-yl)cyclopropane-1-sulfonamide] | 
14 | 1 to 10 nM | 90 to 100% | O=C([C@H](O)C(F)(F)F)N1CC2(CC2)[C@H](NS(=O)(=O)CF)[C@@H]1Cc1cccc(-c2ccccc2)c1F [Compound 98, 1-fluoro-N-((6S,7S)-6-((2-fluoro-[1,1′-biphenyl]-3-yl)methyl)-5-((S)-3,3,3-trifluoro-2-hydroxypropanoyl)-5-azaspiro[2.4]heptan-7-yl)methanesulfonamide] | 
15 | 1 to 10 nM | 90 to 100% | COC[C@@H](C)N(C)C(=O)N1CC2(CC2)[C@H](NS(C)(=O)=O)[C@@H]1Cc1cccc(-c2ccccc2)c1F [Compound 317, (6S,7S)-6-((2-fluoro-[1,1′-biphenyl]-3-yl)methyl)-N-((R)-1-methoxypropan-2-yl)-N-methyl-7-(methylsulfonamido)-5-azaspiro[2.4]heptane-5-carboxamide] | 
16 | 1 to 10 nM | 80 to 90% | CCNC(=O)N1CC2(CC2)C(NS(C)(=O)=O)C1Cc1cccc(-c2ccccc2)c1OC (racemic) [Compound 44, N-ethyl-6-((2-methoxy-[1,1′-biphenyl]-3-yl)methyl)-7-(methylsulfonamido)-5-azaspiro[2.4]heptane-5-carboxamide] | 
17 | 0.0794 to 1 nM | 90 to 100% | COC1(CNC(=O)N2CC3(CC3)[C@H](NS(C)(=O)=O)[C@@H]2Cc2cccc(-c3ccccc3)c2F)CC1 [Compound 100, (6S,7S)-6-((2-fluoro-[1,1′-biphenyl]-3-yl)methyl)-N-((1-methoxycyclopropyl)methyl)-7-(methylsulfonamido)-5-azaspiro[2.4]heptane-5-carboxamide] | 
18 | 10 to 100 nM | 90 to 100% | CS(=O)(=O)N[C@@H]1[C@H](Cc2cc(F)cc(-c3ccccc3F)c2F)N(C(=O)[C@H]2CCO2)CC12CC2 [Compound 350, N-((6S,7S)-5-((R)-oxetane-2-carbonyl)-6-((2,2′,5-trifluoro-[1,1′-biphenyl]-3-yl)methyl)-5-azaspiro[2.4]heptan-7-yl)methanesulfonamide] | 
19 | 1 to 10 nM | 90 to 100% | CS(=O)(=O)N[C@@H]1[C@H](Cc2cccc(-c3ccccc3)c2F)N(C(=O)NCCC#N)CC12CC2 [Compound 330, (6S,7S)-N-(2-cyanoethyl)-6-((2-fluoro-[1,1′-biphenyl]-3-yl)methyl)-7-(methylsulfonamido)-5-azaspiro[2.4]heptane-5-carboxamide] | 
20 | 10 to 100 nM | 90 to 100% | COC[C@H]1CCN1C(=O)N1CC2(CC2)[C@H](NS(C)(=O)=O)[C@@H]1Cc1cccc(-c2ccccc2)c1F [Compound 103, N-((6S,7S)-6-((2-fluoro-[1,1′-biphenyl]-3-yl)methyl)-5-((R)-2-(methoxymethyl)azetidine-1-carbonyl)-5-azaspiro[2.4]heptan-7-yl)methanesulfonamide] | 
21 | 1 to 10 nM | 90 to 100% | CS(=O)(=O)N[C@@H]1[C@H](Cc2cccc(-c3ccccc3)c2F)N(C(=O)NC[C@@H]2CCO2)CC12CC2 [Compound 333, (6S,7S)-6-((2-fluoro-[1,1′-biphenyl]-3-yl)methyl)-7-(methylsulfonamido)-N-(((S)-oxetan-2-yl)methyl)-5-azaspiro[2.4]heptane-5-carboxamide] | 
22 | 0.0794 to 1 nM | 90 to 100% | O=C(NCC1(F)CC1)N1CC2(CC2)[C@H](NS(=O)(=O)CF)[C@@H]1Cc1cccc(-c2ccccc2)c1F [Compound 157, (6S,7S)-6-((2-fluoro-[1,1′-biphenyl]-3-yl)methyl)-N-((1-fluorocyclopropyl)methyl)-7-((fluoromethyl)sulfonamido)-5-azaspiro[2.4]heptane-5-carboxamide] | 
23 | 0.0794 to 1 nM | 90 to 100% | C[C@H](CF)NC(=O)N1CC2(CC2)[C@H](NS(C)(=O)=O)[C@@H]1Cc1cccc(-c2ccccc2)c1F [Compound 101, (6S,7S)-6-((2-fluoro-[1,1′-biphenyl]-3-yl)methyl)-N-((R)-1-fluoropropan-2-yl)-7-(methylsulfonamido)-5-azaspiro[2.4]heptane-5-carboxamide] | 

Row | Structure (SMILES) | EC50 [1] | Emax [1] | Emax
24 | CN(C)C(=O)N1CC2(CC2)[C@H](NS(C)(=O)=O)[C@@H]1Cc1cccc(-c2ccccc2)c1F [Compound 110, (6S,7S)-6-((2-fluoro-[1,1′-biphenyl]-3-yl)methyl)-N,N-dimethyl-7-(methylsulfonamido)-5-azaspiro[2.4]heptane-5-carboxamide] | 0.0794 to 1 nM |  | 90 to 100%
